Reference: patent US20240366577A1, “CONTROLLED LONG-TERM DRUG DELIVERY AND METHODS THEREOF” (THE JOHNS HOPKINS UNIVERSITY, priority 2021, published 2024)
Read-outs that look alike come from different tables or passages of the source.

Columns and labels:
[1] = test system: foreign body and immune rejection responses to implanted biomedical devices; conditions: rodents; cited from earlier work
[2] = test system: foreign body and immune rejection responses to implanted biomedical devices; conditions: non-human primates; cited from earlier work
[3] = in vitro release under accelerated release conditions; format: physicochemical; conditions: 37° C., PBS+0.3% SDS, 2.9 mg drug, 12-day time course; amorphous vs 50 μm vs 150-200 μm crystals
Description: After crystals visibly stopped precipitating or growing, the vessel was submerged in an ultrasonic water bath for 10-30 seconds to dislodge crystals from the vessel sidewall and break them into more a uniform size distributions, either smaller fines, for example 50 μm, or between 150-200 μm, as measured by brightfield and scanning electron microscopy, shown in FIGS. 2A-2B. Resultant product was then removed from the supernatant mother solution, dried, weighed, and stored for later use. On average, yielded crystal was approximately 40% of the starting powder. Furthermore, methods exist to quantify solubilized material, typically using optics to identify changes in light transmittance, and enabled testing of crystal stability in a range of aqueous solutions. […] To simulate cumulative drug release over time, all 3 mL supernatant volumes were removed and replaced with completely fresh release media at desired times of 1 hr, 4 hr, 6 hr, 8 hr, 10 hr, 1 day, 2 days, 5 days, 7 days, 10 days and 12 days, and 200 μL aliquots were measured in individual wells of a 96-well plate at 266 nm to determine solubilize sorafenib release, as shown in FIG. 2D.
Release studies were carried out under accelerated conditions in PBS with 0.3% w/v SDS in 1X PBS. […] Drug concentration in samples was measured using a UV-calibrated Tecan infinite M200 PRO. […]

[4] = SD rats; cited from earlier work
[5] = body weight of treated tumor-bearing mice; format: in vivo, BALB/c mice; conditions: daily 25 mg/kg bolus in ~60% DMSO solvent solution
Experimental: However, due to the highly hydrophobic nature of sorafenib, its daily 25 mg/kg bolus dosing regimen required regular used of a solvent solution made up of ˜60% of the strong organic solvent dimethylsulfoxide (DMSO). […] In stark contrast, no DMSO was required for delivery of sorafenib crystals, for which instead simply utilized ˜100-200 μl of saline to inject into the desired IP or SC tissue sites.
Once tumors had reached an average volume of ˜220-250 mm^3, mice were administered either subcutaneously or intraperitoneally with 3 or 10 mg of crystalline sorafenib, diameter ˜150-200 μm, suspended in 200 μL of sterile saline using an 18 g needle. As a control, mice (n=4) were dosed with sorafenib dissolved at a concentration of 4 mg/mL in a solution of 65% DMSO (remainder DPBS). Mice were dosed either subcutaneously or intraperitoneally with a bolus of 25 mg drug per kg of bodyweight (BW), daily. As a secondary control, mice were dosed with the 65% DMSO/PBS vehicle to monitor changes in body score based on the vehicle alone.

[6] = test system: alpha Smooth Muscle actin (aSMact); assay: immunofluorescent staining of tumors: aSMact; format: in vivo, BALB/c mice; conditions: daily bolus IP 25 mg/kg/day
Experimental: (§1) To confirm the effects seen at the level of RNA, immunofluorescent staining of excised tumor samples that were in parallel fixed with paraformaldehyde and embedded in paraffin was performed. […] Co-localization of CD31 with aSMact was, as expected, not linked in crystal sorafenib-treated tumors, where CD31 reduction was more extensive than with daily, bolus sorafenib.
(§2) Immunofluorescence imaging was used to determine anti-angiogenic drug efficacy. Tumor tissues were retrieved from mice and fixed overnight using 4% paraformaldehyde at 4° C. After fixation, retrieved tissue samples were moved to 70% ethanol. Samples were then processed for paraffin embedding, sectioning and staining. […] Next, tissues were incubated for 1 hour in an immunostaining cocktail solution consisting of NucBlue (Thermo), specific marker probes (1:200 dilution) anti-CD31 (Cat#DIA-310, HistoBioTec) and anti-alphaSmoothMuscle actin-Cy3 (Sigma) in Dako staining buffer. For CD31, a goat anti-rat alexa-fluor647 secondary antibody was also used (1:400). After staining, samples were rinsed again with 1X PBS three times prior to slides being cover slipped with Pro-long anti-fade Gold (Thermo). […] For stain quantification, images were converted into 8-bit image files, a background threshold was determined using NIH ImageJ, and then all images were processed using an NIH ImageJ macro to quantify the area of positive stain. […]

[7] = test system: macrophage Cd68 and myeloid Cd11b; assay: qPCR of retrieved tumors: immune markers; format: in vivo, BALB/c mice; conditions: daily IP bolus 25 mg/kg BW/day
[8] = test system: caspase-3/7; assay: Caspase-Glo 3/7 of tumor lysates; format: in vivo, BALB/c mice; conditions: daily bolus regimen; tumors at end of study
Experimental: as §1
Caspase activity was determined using the Caspase-Glo 3/7 assay kit and the manufacturer's protocol, with the following modifications. Protein samples (prepared by sonication probe in NP40 lysis buffer (Cat#FNN0021, Thermo)+Halt protease inhibitor cocktail (Cat#78425, Thermo)) were prepared in a 96-well plate following BCA assay (Cat#23225, Pierce/Thermo) protein quantification ([…] in 50 μl) were incubated with 50 μl of reconstituted caspase 3/7 substrate. After a brief shaking, the plate was incubated at room temperature for 1 hr and luciferase activity was determined using a BioTek Synergy 2 plate reader (Biotek; Winooski, VT).

[9] = test system: 4T1; conditions: 20-60 mg/kg dosing; cited from earlier work
[10] = test system: tumor endothelial CD31; assay: immunofluorescent staining of tumors: CD31; format: in vivo, BALB/c mice; conditions: daily bolus IP 25 mg/kg/day
Experimental: as §1, §2

[11] = test system: MDA-MB-231; conditions: 30 mg/kg bodyweight daily oral, cited from earlier work
[12] = test system: 4T1 tumors; assay: orthotopic parent 4T1 TNBC tumor growth; format: in vivo, BALB/c mice; conditions: daily IP bolus 25 mg/kg BW/day, dissolved in ~60% DMSO
Experimental: Namely, 4T1 tumors were treated with either PBS (PBS CONTROL), intraperitoneal (IP) bolus sorafenib (25 mg/kg BW/day) (IP BOLUS), 3 mg IP injected sorafenib crystals (IP CRYSTAL 3 MG), or sorafenib crystals (3 mg: SC CRYSTAL (3 MG); 10 mg: SC CRYSTAL (10 MG)) injected around developed tumors in the subcutaneous (SC) mammary fatpad. Furthermore, to truly test the utility of crystalline sorafenib in treating such an aggressive TNBC model, treatment was carried out retrospectively and only started once tumor volumes reached ˜225-250 mm^3. A positive control liquid-dissolved and daily injected drug treatment group was included, where mice were dosed with a daily bolus of 25 mg sorafenib/kg of mouse BW. […] This may be supported by our prior observation that in the IP compartment, where there is higher 10 liquid turnover as compared to the SC space, crystalline drugs usually have a faster kinetic of release over time.
4T1 or 4T1-luc2 cells were trypsinized using 0.25% Trypsin-EDTA, then diluted with the appropriate complete culture media and spun in a centrifuge at 300 g for 5 min. The supernatant was aspirated, and the pellet was re-suspended in serum-free RPMI 1640. The solution was centrifuged again, and the supernatant aspirated. Re-suspension, centrifugation, and aspiration was repeated once more. 5 mL of RPMI-1640 was then added to the pellet. 10 μL of the cell suspension was removed and mixed with 10 μL of Trypan blue stain 0.4% (ThermoFisher). Cells were counted with a Countess automated cell counter. Cell solutions were centrifuged one more time, the supernatant aspirated, and the pellet resuspended in the amount of RPMI-1640 required to achieve a concentration of 5×10^5 cells/200 μL of media. Tumor cells were then administered orthotopically in naive (and anesthetized) BALB/c mice into the right inguinal mammary fat pad 21 with 200 μL aliquots of the cell suspension, using an insulin syringe. Tumors were measured externally using a digital caliper, and volume was calculated (!″* (length * height) *−length * height). Except in the 4T1-luc2 trial, treatment began once tumors reached an average volume of 220-250 mm3. Experimental end point was deemed when solid tumors reached a volume of no more than 2000 mm3. Tumors were extracted and harvested, half stored in 4% paraformaldehyde diluted from 32% (Cat#50980495, Electron Microscopy Services) with DI H2O, and half frozen in liquid nitrogen, then stored at −80° C.
Once tumors had reached an average volume of ˜220-250 mm^3, mice were administered either subcutaneously or intraperitoneally with 3 or 10 mg of crystalline sorafenib, diameter ˜150-200 μm, suspended in 200 μL of sterile saline using an 18 g needle. […]

COc1ccc(COc2ccc(Cc3cnc(N)nc3N)cc2OC)cc1 [GW2580]
duration of suppression of foreign body and immune rejection responses [1]: over 1.3 years
duration of suppression of foreign body and immune rejection responses [2]: ≥ 6 months

CNC(=O)c1cc(Oc2ccc(NC(=O)Nc3ccc(Cl)c(C(F)(F)F)c3)cc2)ccn1 [amorphous (powder) sorafenib, sorafenib]
release of solubilized sorafenib (cumulative) [3]: fastest release

CO[C@H]1C[C@@H]2CC[C@@H](C)[C@@](O)(O2)C(=O)C(=O)N2CCCC[C@H]2C(=O)O[C@H]([C@H](C)C[C@@H]2CC[C@@H](O)[C@H](OC)C2)CC(=O)[C@H](C)/C=C(\C)[C@@H](O)[C@@H](OC)C(=O)[C@H](C)C[C@H](C)/C=C/C=C/C=C/1C [crystalline rapamycin, rapamycin]
inflammatory activity / biocompatibility [4]: no inflammatory activity

CNC(=O)c1cc(Oc2ccc(NC(=O)Nc3ccc(Cl)c(C(F)(F)F)c3)cc2)ccn1 [sorafenib]
body weight loss [5]: 15-20%
tumor aSMact levels (immunofluorescence) [6]: significant reduction
Cd68 and Cd11b expression levels (qPCR) [7]: no significant changes
apoptotic index (caspase-3/7 levels in tumor lysates) [8]: significantly increased
effects on tumor growth [9]: negligible effects
recruitment/polarization of CD206+ F4/80+ M2 macrophages [9]: higher recruitment/polarization
tumor endothelial CD31 levels (immunofluorescence) [10]: significant reduction
tumor reduction ([11]; after 9 days): 42%
angiogenic inhibition [11]: significant angiogenic inhibition
tumor volumes [12]: slight dip in tumor volumes
